As usually defined, the IC50 is the midpoint of a concentration-inhibition curve. In general, Kd refers to the constant that tells how readily two partners part at equilibrium.

The target in test [1] is T1, Alpha-ketoglutarate-dependent dioxygenase alkB homolog 3 (Homo sapiens, UniProt Q96Q83).
T1 sequence (Q96Q83 whole entry): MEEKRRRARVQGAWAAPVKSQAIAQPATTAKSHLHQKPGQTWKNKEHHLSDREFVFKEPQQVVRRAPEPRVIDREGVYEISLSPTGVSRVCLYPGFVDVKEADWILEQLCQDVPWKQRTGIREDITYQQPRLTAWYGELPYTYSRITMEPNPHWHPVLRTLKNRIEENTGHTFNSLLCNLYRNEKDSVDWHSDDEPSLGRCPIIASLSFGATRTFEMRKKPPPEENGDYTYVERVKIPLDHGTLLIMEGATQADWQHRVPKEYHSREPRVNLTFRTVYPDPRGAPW
The test can be described thus: Inhibition of recombinant human AlkBH3 assessed as reduction in formaldehyde release using 40-mer single N3-meC as substrate incubated for 60 mins followed by substrate addition measured after 15 mins by fluorescence assay.

Test [2] concerns the target T2, Alpha-ketoglutarate-dependent dioxygenase alkB homolog 3 (Homo sapiens) (UniProt Q96Q83).
T2 sequence (whole entry): T1 sequence (Q96Q83 whole entry)
Description: Inhibition of recombinant human AlkBH3 assessed as reduction in formaldehyde release at 50 uM using 40-mer single N3-meC as substrate incubated for 60 mins followed by substrate addition measured after 15 mins by fluorescence assay.

The target in test [3] is T2, Alpha-ketoglutarate-dependent dioxygenase alkB homolog 3 (Homo sapiens). Description: Inhibition of AlkBH3 in human A549 cells assessed as increase in MMS-induced cytotoxicity at 1 uM after 48 hrs by MTT assay. It counts as cell-based. Background: Tetrazolium assays rely on reduction of a dye to a coloured formazan, in cell work by metabolically active cells.
Test [4] has as its system A549. The test can be described thus: Cytotoxicity against human A549 cells assessed as decrease in cell viability at 1 uM after 12 to 60 mins by MTT assay. It is filed as functional, cell-based.
The subject of test [5] is A549. Description: Cytotoxicity against human A549 cells assessed as decrease in cell viability at 500 uM after 48 to 72 hrs by MTT assay. It counts as functional, cell-based.
Test [6] deals with A549. The test can be described thus: Cytotoxicity against human A549 cells assessed as decrease in cell viability after 48 to 72 hrs by MTT assay. It is filed as functional, cell-based.
Test [7] addresses T2, Alpha-ketoglutarate-dependent dioxygenase alkB homolog 3 (Homo sapiens). The test can be described thus: Mixed type inhibition of recombinant human AlkBH3 assessed as reduction in formaldehyde release at 50 to 500 uM using varying levels of 2OG as substrate incubated for 60 mins followed by substrate addition measured after 15 mins by Lineweaver-Burk plot analysis.
Test [8] has the same target. The test can be described thus: Binding affinity to recombinant human AlkBH3 at 12 uM after 1 hr by near-UV circular dichroism spectroscopy. (CD spectra are sensitive to the conformation of chiral molecules.)
Test [9] deals with T1, Alpha-ketoglutarate-dependent dioxygenase alkB homolog 3. The test can be described thus: Binding affinity to recombinant human AlkBH3 incubated for 2 mins by isothermal titration calorimetric method. In general terms: In ITC the heat of successive injections is recorded.
Test [10] concerns the target T2, Alpha-ketoglutarate-dependent dioxygenase alkB homolog 3 (Homo sapiens). Description: Competitive inhibition of recombinant human AlkBH3 assessed as reduction in formaldehyde release at 50 to 500 uM using 40-mer internal N3me-oligo-dC as substrate incubated for 60 mins followed by substrate addition measured after 15 mins by Lineweaver-Burk plot analysis.
The target is the same in test [11]. Description: Binding affinity to recombinant human AlkBH3 at 12 uM after 1 hr by far-UV circular dichroism spectroscopy.

Activity calls are given as the source filed them. No cut-off for these calls is given here.

With `COc1ccc(C2=C(c3ccc(OC)c(OC)c3)c3cc(-c4ccccc4)ccc3C2=O)cc1OC`, the IC50 in test [1] was greater than 50 µM.

As to `Cc1ccc2c(c1)C(c1ccc(Cl)c(Cl)c1)=C(c1ccc(Cl)c(Cl)c1)C2=O`, in [1], the IC50 is 32.3 µM. The inhibition entry in [2] was “Active”.

Regarding `COc1ccc(C2=C(Cl)C(=O)c3ccc(C)cc32)cc1`, the IC50 in test [1] is greater than 50 µM. The inhibition result in test [3] is “inactive”. Also, the result in the test on A549 [4] and in the test on A549 [5] was inactive.

For the compound `COc1ccc(C2=C(c3cc(OC)cc(OC)c3)C(=O)c3ccc(C)cc32)cc1`, the IC50 in test [1] is greater than 50 µM.

`COc1ccc(C2=C(Br)C(=O)c3ccc(C)cc32)cc1OC`: the IC50 in [1] was greater than 50 µM.

`Cc1ccc2c(c1)C(c1ccccc1)=C(c1ccccc1)C2=O`: in test [1], the IC50 is greater than 50 µM.

As for `COc1ccc(C2=C(c3cc(OC)cc(OC)c3)c3cc(C)ccc3C2=O)cc1`, the IC50 in test [1] was greater than 50 µM.

For the compound `COc1ccc(C2=C(c3ccc(OC)c(OC)c3)c3cc(C)ccc3C2=O)cc1OC`, the IC50 in test [1] is greater than 50 µM.

On to `O=C1C(c2ccccc2)=C(c2ccccc2)c2cc(-c3ccccc3)ccc21`, for which the IC50 in [1] was greater than 50 µM.

On to `COc1ccc(C2=C(Cl)C(=O)c3ccc(-c4ccccc4)cc32)cc1`, for which the IC50 in test [1] is greater than 50 µM; in the test on A549 [6] it was 370 µM. For the same compound, the inhibition result in test [3] was “inactive”. For the same compound, the outcome in the test on A549 [4] was inactive.

Take `COc1ccc(C2=C(Br)C(=O)c3ccc(C)cc32)cc1`: the IC50 in [1] was 43.2 µM.

Consider `COc1ccc(C2=C(c3cc(OC)cc(OC)c3)C(=O)c3ccc(-c4ccccc4)cc32)cc1`, for which the IC50 in test [1] was greater than 50 µM.

`COc1ccc(C2=C(c3cc(OC)cc(OC)c3)C(=O)c3ccc(-c4ccc(C)cc4)cc32)cc1`: the IC50 in test [1] is greater than 50 µM.

Consider `COc1ccc(C2=C(c3ccc(OC)cc3)c3cc(-c4ccccc4)ccc3C2=O)cc1`, for which, in [1], the IC50 was greater than 50 µM.

Consider `COc1cccc(C2=C(c3cccc(OC)c3)c3cc(C)ccc3C2=O)c1`, for which the IC50 in test [1] was greater than 50 µM.

Turning to `COc1ccc(C2=C(Cl)C(=O)c3ccc(-c4ccc(C)cc4)cc32)cc1`, the inhibition entry in [7], in test [2], in test [3] and in test [10] was “Active” each time. In addition, the IC50 came out at 9.8 µM in [1] and 18 µM in the test with A549 [6]. Also, the result (in [8]; with A549 [4]; in test [11]) was Active. Besides, the Activity result in the test on A549 [6] is “Dose-dependent effect”. Further, the Kd in test [9] was 7.81 µM.

As to `COc1cccc(C2=C(c3cccc(OC)c3)c3cc(-c4ccc(C)cc4)ccc3C2=O)c1`, the IC50 in test [1] came to 13.1 µM. In addition, in test [2], the inhibition entry is “Active”.

Take `Cc1ccc(C2=C(Br)C(=O)c3ccc(C)cc32)cc1`: the IC50 in [1] was greater than 50 µM.

`COc1cc(OC)cc(C2=C(Br)C(=O)c3ccc(C)cc32)c1`: the IC50 in test [1] is greater than 50 µM.

Consider `COc1ccc(C2=C(c3ccc(OC)c(OC)c3)c3cc(-c4ccc(C)cc4)ccc3C2=O)cc1OC`, for which, in test [1], the IC50 was greater than 50 µM.

As for `Cc1ccc2c(c1)C(c1cccc3ccccc13)=C(Br)C2=O`, the IC50 in test [1] was greater than 50 µM.

For `Cc1ccc(C2=C(c3ccc(C)cc3)c3cc(C)ccc3C2=O)cc1`, the IC50 in [1] is greater than 50 µM.

`Cc1ccc2c(c1)C(c1ccccc1)=C(Br)C2=O`: the IC50 in test [1] is greater than 50 µM.

For `COc1ccc(C2=C(c3ccc(OC)cc3)c3cc(C)ccc3C2=O)cc1`, the IC50 in test [1] is greater than 50 µM.

Consider `COc1cccc(C2=C(c3cccc(OC)c3)c3cc(-c4ccccc4)ccc3C2=O)c1`, for which the IC50 in [1] was greater than 50 µM.

These data come from ChEMBL document CHEMBL4229474, “Indenone derivatives as inhibitor of human DNA dealkylation repair enzyme AlkBH3” (Bioorg Med Chem, 2018).
